Laboratory results: patent US20230000876A1, “TREATING CANCERS WITH A CYCLIN-DEPENDENT KINASE INHIBITOR” (Nuvation Bio Inc., priority 2021, published 2023)

Experiments:
H1975-luc = test: CellTiter-Glo anti-proliferation assay, H1975-luc; assay type: cell-based
Procedure: The anti-proliferation effect of 2 compounds (the compound of formula (I) and temozolomide) in 7 CNS metastasis cell lines (MOLT-4-luc, Nalm-6-luc, NCI-H460-luc, ACHN-luc2, PC-9-luc, H1975-luc, and KM12-luc) was evaluated.
The plating of cells and compound treatments are shown below in the plate map (Table 12). One plate was needed for the test of 2 compounds (the compound of formula (I) and temozolomide) in one cell line. The compound of formula (I) was tested from 10 μM, 3-fold serial dilution. Temozolomide was tested from 100 μM, 3-fold serial dilution.
All the cell lines were maintained in culture conditions at 37° C. in an atmosphere with 5% CO2 in air. The tumor cells were routinely subcultured. The cells growing in an exponential growth phase were harvested and counted for plating.
Cells were counted by haemocytometer with Trypan blue staining. Next, 135 μL of cell suspension were plated into the assay plates according to the plate map and 135 μL of assay medium into the blank wells. The plates were incubated at 37° C., 5% CO2, 95% air and 100% relative humidity overnight.
(§1) 4.4.4 Compound Plate (10×) Preparation and Compound Treatment • 10× concentrate compound plate preparation: Add 198 μL of assay medium into each well of the V-bottom plate; then transfer 2 μL of the stock compound solution of each concentration from the stock plate. Add 2 μL of DMSO into the Blank and Control wells. Pipette up and down to mix well. This V-plate is designated as the 10× concentrate compound plate. • For day 0 plate, add 15 μL of the DMSO-medium into the Control wells. The final DMSO concentration was 0.1%. Then directly proceed to cell viability assay. • For assay plate, add 15 μL of the compound-medium of each well from the 10× concentrate compound plate into the cells in 96-well assay plate according to the plate map. Add 15 μL of the DMSO-medium into the Blank and Control wells. The final DMSO concentration was 0.1%. • Return the assay plate into incubator and incubate for 6 days.
(§2) The procedures were performed according to the Promega CellTiter-Glo Luminescent Cell Viability Assay Kit manual (Promega-G7573). • The CellTiter-Glo buffer was thawed and equilibrated to room temperature prior to use. • CellTiter-Glo Substrate was equilibrated to room temperature prior to use. • The entire liquid volume of CellTiter-Glo Buffer was transferred into the amber bottle containing CellTiter-Glo Substrate to reconstitute the lyophilized enzyme/substrate mixture. This forms the CellTiter-Glo Reagent. • The contents were mixed by gently vortexing to obtain a homogeneous solution. • The plate was equilibrated and its contents to room temperature for approximately 30 minutes. 75 μL (equal to the half volume of culture medium present in each well) CellTiter-Glo • Reagent was added in each well. Plates were covered with aluminum foil to protect from light. • The contents were mixed for 2 minutes on an orbital shaker to induce cell lysis. • The plate was incubated at room temperature for 20 minutes to stabilize luminescent signal. • Record luminescence on the 2104 EnVision plate reader.
Inhibition rate (IR) of the tested compounds was determined by the following formula: IR (%)=(1−(RLU compound−RLU day0)/(RLU control−RLU day0))*100%. The inhibitions of different dose of compound were calculated in Excel file, and then were used to plot inhibition curves and evaluate related parameters, such as Min (%), Max (%) and GI50. The data were interpreted by GraphPad Prism.

A375 = test: Cell viability assay, melanoma cell line A375; assay type: cell-based
Procedure: as §1
as §2, with “This forms the CellTiter-Glo Reagent. • The contents were mixed by gently vortexing to obtain a homogeneous solution. • The plate was equilibrated and its contents to room temperature for approximately 30 minutes. 75 μL (equal to the half volume of culture medium present in each well) CellTiter-Glo • Reagent was added in each well.” left out
Inhibition rate (IR) of the tested compounds was determined by the following formula: IR (%)=(1−(RLU compound−RLU day0)/(RLU control−RLU day0))*100%. The inhibitions of different dose of compound were calculated in Excel file, and then were used to plot inhibition curves and evaluate related parameters, such as Min (%), Max (%) and GI50. […]

[1] = system: tumor fragments from a mCRPC patient; test: Enzalutamide-resistant patient-derived xenograft prostate model (ST2347 PDX); assay type: in vivo, male Balb/c nude mice
[2] = inhibition rate, 6 days, Compound (I) from 10 μM, temozolomide from 100 μM, 3-fold, 9 points

## CC(C)N1CCOc2c(F)cc(-c3nc(Nc4ccc(C5CCN(C)CC5)cn4)ncc3F)cc21 [Compound (I), 5-fluoro-4-(8-fluoro-4-isopropyl-3,4-dihydro-2H-benzo[b][1,4]oxazin-6-yl)-N-(5-(1-methylpiperidin-4-yl)pyridin-2-yl)pyrimidin-2-amine]
H1975-luc; 144 h, 6 days incubation, read-out: Absolute GI50
  GI50: 0.226 µM
H1975-luc; [2]
  Max (%): 105.8%
  Min (%): −2.3%
A375; Homo sapiens, A-375, read-out: Absolute GI50
  GI50: 0.156 µM
A375; inhibition rate
  Max (%): 101.21%
  Min (%): −0.12%
[1]; 30 mg/kg oral QD
  Antitumor activity over the course of the treatment: statistically significant antitumor activity
  Tumor regression: tumor regression in all cases
[1]; day 39 of treatment
  Mice with 100% reduction in tumor volume: one
  Mice with >50% reduction in tumor volume: 3 of 10
